For assay [1], the system named is A549. The assay is described as follows: Antiproliferative activity against human A549 cells assessed as cell survival rate at 15 uM incubated for 48 hrs by CCK8 assay. The class given is functional. The note with it: A549, 48 h, read-out: Survival.
Assay [2] concerns A549. Nature of the assay: Inhibition of TGFbeta1-induced increase in Snail gene expression in human A549 cells at 15 and 20 uM pre-treated for 2 hrs before TGFbeta1 stimulation for 48 hrs by qRT-PCR method. The class given is functional, cell-based.
The subject of assay [3] is A549. The assay is described as follows: Antiproliferative activity against human A549 cells assessed as cell survival rate at 2.5 uM incubated for 48 hrs by CCK8 assay. The class given is functional. As to conditions: A549, 48 h, read-out: Survival. Background: Tetrazolium dyes change colour on reduction, which living cells bring about.
For assay [4], the system named is A549. The assay is described as follows: Inhibition of TGFbeta1-induced increase in Snail protein expression in human A549 cells at 15 and 20 uM pre-treated for 2 hrs before TGFbeta1 stimulation for 48 hrs by Western blot method. Type of assay: functional, cell-based.
The subject of assay [5] is A549. Nature of the assay: Inhibition of TGFbeta1-induced epithelial-mesenchymal transition in human A549 cells assessed as suppression of mesenchymal phenotype at 15 and 20 uM pre-treated for 2 hrs before TGFbeta1 stimulation for 48 hrs. Type of assay: functional, cell-based.
The subject of assay [6] is A549. The assay is described as follows: Inhibition of TGFbeta1-induced cell migration of human A549 cells at 15 and 20 uM incubated for 48 hrs by wound healing assay. Type of assay: functional, cell-based.
Assay [7] deals with Mothers against decapentaplegic homolog 2 (Homo sapiens) (UniProt Q15796). The assay is described as follows: Inhibition of TGFbeta1-induced Smad2 phosphorylation in human A549 cells at 15 and 20 uM pre-treated for 2 hrs before TGFbeta1 stimulation for 48 hrs by Western blot method. The class given is cell-based. (In general: Immunoblotting shows a protein as a band on a membrane.)

The test system of assay [8] is A549. The assay is described as follows: Inhibition of TGFbeta1-induced anoikis resistance in human A549 cells grown on poly-HEMA-coated tissue culture plates assessed reduction in cell proliferation at 15 and 20 uM pre-treated for 2 hrs before TGFbeta1 stimulation for 48 hrs by SRB assay. The class given is functional, cell-based.
The subject of assay [9] is A549. Nature of the assay: Antiproliferative activity against human A549 cells assessed as cell survival rate at 20 uM incubated for 48 hrs by CCK8 assay. The note with it: A549, 48 h, read-out: Survival. Type of assay: functional.
For assay [10], the system named is A549. Nature of the assay: Antiproliferative activity against human A549 cells assessed as effect on cell proliferation at =< 30 uM incubated for 24 hrs by CCK8 assay. The class given is functional, cell-based.
Assay [11] relates to A549. The assay is described as follows: Inhibition of TGFbeta1-induced anoikis resistance in human A549 cells grown on poly-HEMA-coated tissue culture plates assessed reduction in PARP cleavage at 15 and 20 uM pre-treated for 2 hrs before TGFbeta1 stimulation for 48 hrs by Western blot method. Type of assay: functional, cell-based.
The test system of assay [12] is A549. Nature of the assay: Antiproliferative activity against human A549 cells assessed as inhibition of cell growth at 30 uM incubated for 48 hrs by CCK8 assay. Type of assay: functional, cell-based.
In assay [13] the test system is A549. Nature of the assay: Inhibition of TGFbeta1-induced anoikis resistance in human A549 cells grown on poly-HEMA-coated tissue culture plates at 15 and 20 uM pre-treated for 2 hrs before TGFbeta1 stimulation for 48 hrs. The class given is functional, cell-based.
Assay [14] relates to A549. Nature of the assay: Inhibition of TGFbeta1-induced reduction in E-cadherin expression in human A549 cells at 15 and 20 uM pre-treated for 2 hrs before TGFbeta1 stimulation for 48 hrs by Western blot method. Type of assay: functional, cell-based.
Assay [15] deals with A549. The assay is described as follows: Antiproliferative activity against human A549 cells assessed as cell survival rate at 10 uM incubated for 48 hrs by CCK8 assay. The class given is functional. As to conditions: A549, 48 h, read-out: Survival.
Assay [16] relates to A549. Nature of the assay: Antiproliferative activity against human A549 cells assessed as cell survival rate at 5 uM incubated for 48 hrs by CCK8 assay. As to conditions: A549, 48 h, read-out: Survival. Type of assay: functional.
For assay [17], the system named is A549. The assay is described as follows: Inhibition of TGFbeta1-induced reduction in E-cadherin expression in human A549 cells assessed as suppresion of mesenchymal phenotype at 15 and 20 uM pre-treated for 2 hrs before TGFbeta1 stimulation for 48 hrs by Western blot method. The class given is functional, cell-based.
For assay [18], the system named is A549. Nature of the assay: Inhibition of TGFbeta1-induced increase in vimentin expression in human A549 cells at 15 and 20 uM pre-treated for 2 hrs before TGFbeta1 stimulation for 48 hrs by Western blot method. The class given is functional, cell-based.
Assay [19] deals with A549. The assay is described as follows: Inhibition of TGFbeta1-induced increase in N-cadherin expression in human A549 cells at 15 and 20 uM pre-treated for 2 hrs before TGFbeta1 stimulation for 48 hrs by Western blot method. Type of assay: functional, cell-based.
The test system of assay [20] is A549. Nature of the assay: Inhibition of TGFbeta1-induced cell invasion of human A549 cells at 15 and 20 uM incubated for 48 hrs by matrigel cell invasion assay. Type of assay: functional, cell-based.

The source made the active and inactive calls. The calls are words filed in the database; no cut-off is given here.

Chain of Mothers against decapentaplegic homolog 2 (Homo sapiens) (Q15796 whole entry): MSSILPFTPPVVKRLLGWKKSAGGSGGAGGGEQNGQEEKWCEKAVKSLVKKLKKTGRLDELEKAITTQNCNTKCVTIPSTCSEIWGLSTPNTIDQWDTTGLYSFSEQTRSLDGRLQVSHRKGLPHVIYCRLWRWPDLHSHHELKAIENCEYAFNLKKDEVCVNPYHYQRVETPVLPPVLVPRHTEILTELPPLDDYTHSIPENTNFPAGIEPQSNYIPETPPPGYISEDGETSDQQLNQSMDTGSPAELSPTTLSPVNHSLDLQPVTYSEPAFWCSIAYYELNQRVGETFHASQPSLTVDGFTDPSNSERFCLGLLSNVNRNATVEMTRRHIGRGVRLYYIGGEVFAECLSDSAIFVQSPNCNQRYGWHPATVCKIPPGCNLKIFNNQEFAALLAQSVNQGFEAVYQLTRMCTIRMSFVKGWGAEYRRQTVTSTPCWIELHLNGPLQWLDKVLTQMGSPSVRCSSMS

As for `O=C1O[C@H]2[C@@H]3OC(=O)c4cc(O)c(O)c(O)c4-c4c(cc(O)c(O)c4O)C(=O)OC[C@H]2O[C@@H](OC(=O)c2cc(O)c(O)c(O)c2)[C@@H]3OC(=O)c2cc(O)c(O)c3c2[C@@H]2C1=CC(=O)[C@](O)(O3)C2(O)O` [GERANIIN], the viability at 15 µM in the assay with A549 [1] was greater than 90%. Further, the inhibition entry in the assay with A549 [2], in the assay with A549 [4], with A549 [6] and in the assay with A549 [8] was “Dose-dependent effect” throughout. In the assay with A549 [3], the viability at 2.5 µM is greater than 90%. Besides, the inhibition result (with A549 [5]; in [7]; in the assay with A549 [11]; in the assay on A549 [13]; with A549 [14]; in the assay with A549 [17]) was “Active” in each case. The inhibition result in the assay with A549 [18], in the assay with A549 [19] and in the assay with A549 [20] was “Active” throughout. The viability at 20 µM in the assay on A549 [9] is greater than 90%. Besides, in the assay with A549 [10], the result was inactive. The “growth inhibition (GI)” value with A549 [12] is “Active”. Besides, the viability at 10 µM with A549 [15] was greater than 90%. Besides, in the assay with A549 [16], the viability at 5 µM was greater than 90%.

Values taken from ChEMBL document CHEMBL3603758, “Geraniin inhibits TGF-β1-induced epithelial-mesenchymal transition and suppresses A549 lung cancer migration, invasion and anoikis resistance” (2015).
